# According to US20260132132A1, “3A,4,5,6-TETRAHYDRO-1 H-PYRAZOLO[3,4-C]PYRIDIN-7(7AH)-ONE DERIVATIVES AS FACTOR XIIA INHIBITORS” (KALVISTA PHARMACEUTICALS LIMITED, priority 2022, published 2026):
# Key:
# [1] = molecular target: T1, Human Factor XIIa (hFXIIa) (Homo sapiens, UniProt P00748); assay: Determination of Human Factor XIIa (hFXIIa) inhibition, fluorogenic substrate IC50 assay; assay type: biochemical; conditions: fluorogenic substrate H-DPro-Phe-Arg-AFC at Km, 25° C., read-out: Human FXIIa IC50
# T1 construct: purchased Enzyme Research Laboratories
# T1 sequence (P00748 373-615 limits assumed): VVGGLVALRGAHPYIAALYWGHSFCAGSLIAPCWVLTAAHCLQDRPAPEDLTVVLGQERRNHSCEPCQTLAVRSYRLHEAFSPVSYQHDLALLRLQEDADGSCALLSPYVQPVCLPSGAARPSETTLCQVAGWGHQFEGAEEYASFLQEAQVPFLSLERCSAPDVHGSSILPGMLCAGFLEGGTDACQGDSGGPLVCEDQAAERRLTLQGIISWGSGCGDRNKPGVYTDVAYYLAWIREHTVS
# T1 sequence (P00748 20-372 partner limits assumed): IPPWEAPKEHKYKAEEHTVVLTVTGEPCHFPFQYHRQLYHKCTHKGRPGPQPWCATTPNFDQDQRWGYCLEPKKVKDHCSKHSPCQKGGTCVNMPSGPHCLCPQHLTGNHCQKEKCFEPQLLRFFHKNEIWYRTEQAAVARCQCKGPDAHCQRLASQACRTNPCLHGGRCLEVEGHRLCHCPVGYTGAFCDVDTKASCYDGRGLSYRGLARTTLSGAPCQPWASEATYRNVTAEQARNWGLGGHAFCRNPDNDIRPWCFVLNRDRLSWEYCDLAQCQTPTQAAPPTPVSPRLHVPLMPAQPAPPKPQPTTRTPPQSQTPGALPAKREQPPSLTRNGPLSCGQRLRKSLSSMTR
# Method: Determination of Human Factor XIIa (hFXIIa) inhibition
# The Km for the cleavage of the substrate by hFXIIa was determined by standard transformation of the Michaelis-Menten equation, with subsequent inhibition assays performed at substrate Km concentration.
# FXa = FXa (Homo sapiens, UniProt P00742); assay: Related protease inhibition: FXa, fluorogenic substrate; assay type: biochemical; conditions: fluorogenic substrate at Km, 25° C.; H1-H3 = % activity at 40 μM
# Method: Human serine protease enzyme Plasma Kallikrein, KLK1, FXa, Plasmin, Thrombin and Trypsin were assayed for enzymatic activity using an appropriate fluorogenic substrate at Km concentration, FXIa at fixed substrate concentration of 100 μM and various concentrations of the test compound.
# Sequence of FXa (P00742 235-488 limits assumed): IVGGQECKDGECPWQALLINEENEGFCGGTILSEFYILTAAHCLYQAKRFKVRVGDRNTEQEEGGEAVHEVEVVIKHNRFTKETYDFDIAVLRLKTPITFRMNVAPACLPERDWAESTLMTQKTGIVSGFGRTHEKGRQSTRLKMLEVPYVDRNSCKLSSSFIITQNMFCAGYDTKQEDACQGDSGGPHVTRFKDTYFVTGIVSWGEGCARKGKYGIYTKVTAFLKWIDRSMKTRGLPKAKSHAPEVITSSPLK
# Sequence of FXa (P00742 41-179 partner limits assumed): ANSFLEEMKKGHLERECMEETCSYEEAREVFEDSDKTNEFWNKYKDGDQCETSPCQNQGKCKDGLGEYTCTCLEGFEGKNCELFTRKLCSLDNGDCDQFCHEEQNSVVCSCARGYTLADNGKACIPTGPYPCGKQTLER
SMILES,IC50 [1] [µM],IC50 (FXa) [µM]
"COc1cccnc1CNC(=O)c1nn(-c2cccc(Cl)c2)c2c1CCN(c1ccc3c(c1)CN(CCO)CC3)C2=O [Example 1160, 1-(3-chlorophenyl)-6-(2-(2-hydroxyethyl)-1,2,3,4-tetrahydroisoquinolin-7-yl)-N-((3-methoxypyridin-2-yl)methyl)-7-oxo-4,5,6,7-tetrahydro-1H-pyrazolo[3,4-c]pyridine-3-carboxamide]",0.01 to 0.1,> 40
"O=C(NCc1ccncc1F)c1nn(-c2cccc(Cl)c2)c2c1CCN(c1ccc3c(c1)CN(CCO)CC3)C2=O [Example 1161, 1-(3-chlorophenyl)-N-((3-fluoropyridin-4-yl)methyl)-6-(2-(2-hydroxyethyl)-1,2,3,4-tetrahydroisoquinolin-7-yl)-7-oxo-4,5,6,7-tetrahydro-1H-pyrazolo[3,4-c]pyridine-3-carboxamide]",0.01 to 0.1,> 40
"Cc1ccncc1CNC(=O)c1nn(-c2cccc(Cl)c2)c2c1CCN(c1cccc(CN3CCCCC3)c1)C2=O [Example 1177, 1-(3-chlorophenyl)-N-((4-methylpyridin-3-yl)methyl)-7-oxo-6-(3-(piperidin-1-ylmethyl)phenyl)-4,5,6,7-tetrahydro-1H-pyrazolo[3,4-c]pyridine-3-carboxamide]",0.01 to 0.1,> 40
"Cc1nnc(CNC(=O)c2nn(-c3cccc(Cl)c3)c3c2CCN(c2ccc4c(c2)C(=O)N(C)CC4)C3=O)s1 [Example 1181, 1-(3-chlorophenyl)-N-((5-methyl-1,3,4-thiadiazol-2-yl)methyl)-6-(2-methyl-1-oxo-1,2,3,4-tetrahydroisoquinolin-7-yl)-7-oxo-4,5,6,7-tetrahydro-1H-pyrazolo[3,4-c]pyridine-3-carboxamide]",0.3 to 1,> 40

# Next, values leading:
IC50 [1] [µM],IC50 (FXa) [µM],SMILES
0.3 to 1,> 40,"CS(=O)(=O)CCN1CCc2ccc(N3CCc4c(C(=O)NCC5CC5)nn(-c5cccc(Cl)c5)c4C3=O)cc2C1 [Example 1176, 1-(3-chlorophenyl)-N-(cyclopropylmethyl)-6-(2-(2-(methylsulfonyl)ethyl)-1,2,3,4-tetrahydroisoquinolin-7-yl)-7-oxo-4,5,6,7-tetrahydro-1H-pyrazolo[3,4-c]pyridine-3-carboxamide]"
0.3 to 1,> 40,"CN1CCc2ccc(N3CCc4c(C(=O)NC5COCC5O)nn(-c5cccc(Cl)c5)c4C3=O)cc2C1=O (stereo not drawn) [Example 1179, 1-(3-chlorophenyl)-N-(4-hydroxytetrahydrofuran-3-yl)-6-(2-methyl-1-oxo-1,2,3,4-tetrahydroisoquinolin-7-yl)-7-oxo-4,5,6,7-tetrahydro-1H-pyrazolo[3,4-c]pyridine-3-carboxamide]"
0.3 to 1,> 40,"CN1CCc2ccc(N3CCc4c(C(=O)NC(CO)C5CCOC5)nn(-c5cccc(Cl)c5)c4C3=O)cc2C1=O (stereo not drawn) [Example 1180, 1-(3-chlorophenyl)-N-(2-hydroxy-1-(tetrahydrofuran-3-yl)ethyl)-6-(2-methyl-1-oxo-1,2,3,4-tetrahydroisoquinolin-7-yl)-7-oxo-4,5,6,7-tetrahydro-1H-pyrazolo[3,4-c]pyridine-3-carboxamide]"
0.3 to 1,> 40,"Cc1noc(C)c1CNC(=O)c1nn(-c2cccc(Cl)c2)c2c1CCN(c1ccc3c(c1)C(=O)N(C)CC3)C2=O [Example 1185, 1-(3-chlorophenyl)-N-((3,5-dimethylisoxazol-4-yl)methyl)-6-(2-methyl-1-oxo-1,2,3,4-tetrahydroisoquinolin-7-yl)-7-oxo-4,5,6,7-tetrahydro-1H-pyrazolo[3,4-c]pyridine-3-carboxamide]"
0.1 to 0.3,10 to 40,"COc1cc(CNC(=O)c2nn(-c3cccc(Cl)c3)c3c2CCN(c2ccc4c(c2)C(=O)N(C)CC4)C3=O)nn1C [Example 1186, 1-(3-chlorophenyl)-N-((5-methoxy-1-methyl-1H-pyrazol-3-yl)methyl)-6-(2-methyl-1-oxo-1,2,3,4-tetrahydroisoquinolin-7-yl)-7-oxo-4,5,6,7-tetrahydro-1H-pyrazolo[3,4-c]pyridine-3-carboxamide]"
